Measured values: ChEMBL document CHEMBL1201862, “PubChem BioAssay data set” (2004)
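Interpolation was linear, between the two tested concentrations surrounding the appropriate level; five concentrations were tested over 48 hours in 96-well plates. GI50: concentration for 50% inhibition of growth.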 Activity calls are given as the source filed them. No stated cut-off is given here; in the data, active = GI50 up to about 1.1 µM and inactive = higher.

Key:
Experiment in all cases: NCI-60 cell line screen, 48 h
[1] = tested on: RPMI-8226
[2] = tested on: MOLT-4
[3] = tested on: K562
[4] = tested on: KM-20L2
[5] = tested on: OVCAR-4
[6] = tested on: ACHN
[7] = tested on: SK-MEL-2
[8] = tested on: SR
[9] = tested on: UO-31
[10] = tested on: SF-539
[11] = tested on: DMS-114
[12] = tested on: HOP-18
[13] = tested on: M14
[14] = tested on: SF-295
[15] = tested on: HCC 2998
[16] = tested on: OVCAR-8
[17] = tested on: SNB-75
[18] = tested on: XF498
[19] = tested on: OVCAR-5
[20] = tested on: SK-OV-3
[21] = tested on: HOP-92
[22] = tested on: HL-60
[23] = tested on: DLD-1
[24] = tested on: SK-MEL-5
[25] = tested on: RXF 393
[26] = tested on: SNB-19
[27] = tested on: A549
[28] = tested on: SF-268
[29] = tested on: LXFL 529
[30] = tested on: HOP-62
[31] = tested on: M19-MEL
[32] = tested on: OVCAR-3
[33] = tested on: UACC-257
[34] = tested on: IGROV-1
[35] = tested on: COLO 205
[36] = tested on: A498
[37] = tested on: HT-29
[38] = tested on: SW-620
[39] = tested on: SK-MEL-28
[40] = tested on: CCRF-CEM
[41] = tested on: HCT-15
[42] = tested on: U-251
[43] = tested on: NCI-H23
[44] = tested on: UACC-62
[45] = tested on: NCI-H460
[46] = tested on: LOX IMVI
[47] = tested on: TK-10
[48] = tested on: EKVX
[49] = tested on: CAKI-1
[50] = tested on: HCT-116
[51] = tested on: SNB-78
[52] = tested on: DMS-273
[53] = tested on: 786-0
[54] = tested on: SN12C
[55] = tested on: Malme-3M
[56] = tested on: RXF 631
[57] = tested on: KM12
[58] = tested on: NCI-H226
[59] = tested on: NCI-H522
[60] = tested on: PC-3
[61] = tested on: Hs-578T
[62] = tested on: NCI/ADR-RES
[63] = tested on: MDA-MB-231
[64] = tested on: MDA-MB-435
[65] = tested on: MCF7
[66] = tested on: MDA-N
[67] = tested on: DU-145
[68] = tested on: BT-549

For `CC1(C)CC2CC(CC(C)(C)C2=O)C1=O`, the GI50 [1] was > 100 µM (inactive), the GI50 [2] was > 100 µM (inactive) and the GI50 [3] was > 100 µM (inactive). For the same compound, the GI50 [4] was > 100 µM (inactive), the GI50 [5] was > 100 µM (inactive) and the GI50 [6] was > 100 µM (inactive). For the same compound, the GI50 [7] was > 100 µM (inactive), the GI50 [8] was > 100 µM (inactive) and the GI50 [9] was > 100 µM (inactive). For the same compound, the GI50 [10] was > 100 µM (inactive), the GI50 [11] was > 100 µM (inactive) and the GI50 [12] was > 100 µM (inactive). The GI50 [13] was > 100 µM (inactive), the GI50 [14] was > 100 µM (inactive) and the GI50 [15] was > 100 µM (inactive). The GI50 [16] was > 100 µM (inactive), the GI50 [17] was > 100 µM (inactive) and the GI50 [18] was > 100 µM (inactive). The GI50 [19] was > 100 µM (inactive), the GI50 [20] was > 100 µM (inactive) and the GI50 [21] was > 100 µM (inactive). The GI50 [22] was > 100 µM (inactive), the GI50 [23] was > 100 µM (inactive) and the GI50 [24] was > 100 µM (inactive). For the same compound, the GI50 [25] was > 100 µM (inactive), the GI50 [26] was > 100 µM (inactive) and the GI50 [27] was > 100 µM (inactive). The GI50 [28] was > 100 µM (inactive), the GI50 [29] was > 100 µM (inactive) and the GI50 [30] was > 100 µM (inactive). The GI50 [31] was > 100 µM (inactive), the GI50 [32] was > 100 µM (inactive) and the GI50 [33] was > 100 µM (inactive). The GI50 [34] was > 100 µM (inactive), the GI50 [35] was > 100 µM (inactive) and the GI50 [36] was > 100 µM (inactive). The GI50 [37] was > 100 µM (inactive), the GI50 [38] was > 100 µM (inactive) and the GI50 [39] was > 100 µM (inactive). The GI50 [40] was > 100 µM (inactive), the GI50 [41] was over 100 µM and the GI50 [42] was > 100 µM (inactive). For the same compound, the GI50 [43] was > 100 µM (inactive), the GI50 [44] was > 100 µM (inactive) and the GI50 [45] was > 100 µM (inactive). For the same compound, the GI50 [46] was > 100 µM (inactive), the GI50 [47] was > 100 µM (inactive) and the GI50 [48] was > 100 µM (inactive). For the same compound, the GI50 [49] was > 100 µM (inactive), the GI50 [50] was > 100 µM (inactive) and the GI50 [51] was > 100 µM (inactive). For the same compound, the GI50 [52] was > 100 µM (inactive), the GI50 [53] was > 100 µM (inactive) and the GI50 [54] was > 100 µM (inactive). The GI50 [55] was > 100 µM (inactive), the GI50 [56] was > 100 µM (inactive) and the GI50 [57] was > 100 µM (inactive).

`CC1CCC(O)C(C(O)CC2CC(=O)N(C)C(=O)C2)C1` (centres undefined) was tested, and the GI50 [1] was > 100 µM (inactive), the GI50 [2] was > 100 µM (inactive) and the GI50 [3] was > 100 µM (inactive). For the same compound, the GI50 [4] was > 100 µM (inactive), the GI50 [5] was > 100 µM (inactive) and the GI50 [6] was > 100 µM (inactive). The GI50 [8] was > 100 µM (inactive), the GI50 [9] was > 100 µM (inactive) and the GI50 [10] was > 100 µM (inactive). For the same compound, the GI50 [11] was > 100 µM (inactive), the GI50 [12] was > 100 µM (inactive) and the GI50 [13] was > 100 µM (inactive). The GI50 [14] was > 100 µM (inactive), the GI50 [58] was > 100 µM (inactive) and the GI50 [15] was > 100 µM (inactive). The GI50 [16] was > 100 µM (inactive), the GI50 [17] was > 100 µM (inactive) and the GI50 [18] was > 100 µM (inactive). For the same compound, the GI50 [19] was > 100 µM (inactive), the GI50 [20] was > 100 µM (inactive) and the GI50 [21] was > 100 µM (inactive). For the same compound, the GI50 [22] was > 100 µM (inactive), the GI50 [23] was > 100 µM (inactive) and the GI50 [25] was > 100 µM (inactive). For the same compound, the GI50 [26] was > 100 µM (inactive), the GI50 [27] was > 100 µM (inactive) and the GI50 [28] was > 100 µM (inactive). The GI50 [29] was > 100 µM (inactive), the GI50 [30] was > 100 µM (inactive) and the GI50 [31] was > 100 µM (inactive). For the same compound, the GI50 [32] was > 100 µM (inactive), the GI50 [33] was > 100 µM (inactive) and the GI50 [34] was > 100 µM (inactive). For the same compound, the GI50 [35] was > 100 µM (inactive), the GI50 [36] was > 100 µM (inactive) and the GI50 [59] was > 100 µM (inactive). The GI50 [37] was > 100 µM (inactive), the GI50 [38] was > 100 µM (inactive) and the GI50 [39] was > 100 µM (inactive). The GI50 [40] was > 100 µM (inactive), the GI50 [42] was > 100 µM (inactive) and the GI50 [43] was > 100 µM (inactive). The GI50 [44] was > 100 µM (inactive), the GI50 [45] was > 100 µM (inactive) and the GI50 [46] was > 100 µM (inactive). For the same compound, the GI50 [47] was > 100 µM (inactive), the GI50 [48] was > 100 µM (inactive) and the GI50 [49] was > 100 µM (inactive). For the same compound, the GI50 [50] was > 100 µM (inactive), the GI50 [51] was > 100 µM (inactive) and the GI50 [52] was > 100 µM (inactive). The GI50 [53] was > 100 µM (inactive), the GI50 [54] was > 100 µM (inactive) and the GI50 [55] was > 100 µM (inactive). For the same compound, the GI50 [56] was > 100 µM (inactive) and the GI50 [57] was > 100 µM (inactive).

For `Brc1ccccc2cc(-c3ccccc3)nc1-2`, the GI50 [1] was 2.44 µM (inactive), the GI50 [2] was 1.53 µM (inactive) and the GI50 [3] was 2.7 µM (inactive). For the same compound, the GI50 [4] was 1.71 µM (inactive), the GI50 [60] was 13.5 µM (inactive) and the GI50 [5] was 2.9 µM (inactive). The GI50 [6] was 3.37 µM (inactive), the GI50 [61] was 6.87 µM (inactive) and the GI50 [7] was 4.61 µM (inactive). For the same compound, the GI50 [9] was 5.37 µM (inactive), the GI50 [10] was 4.8 µM (inactive) and the GI50 [11] was 2.16 µM (inactive). The GI50 [12] was 3.78 µM (inactive), the GI50 [13] was 3 µM (inactive) and the GI50 [14] was 15.6 µM (inactive). For the same compound, the GI50 [58] was 5.05 µM (inactive), the GI50 [15] was 1.93 µM (inactive) and the GI50 [16] was 2.27 µM (inactive). For the same compound, the GI50 [17] was 11.6 µM (inactive), the GI50 [18] was 1.98 µM (inactive) and the GI50 [19] was 7.43 µM (inactive). The GI50 [20] was 8.69 µM (inactive), the GI50 [21] was 3.32 µM (inactive) and the GI50 [22] was 1.27 µM (inactive). For the same compound, the GI50 [23] was 1.94 µM (inactive), the GI50 [24] was 6.55 µM (inactive) and the GI50 [62] was 3.58 µM (inactive). The GI50 [25] was 2.09 µM (inactive), the GI50 [26] was 13.6 µM (inactive) and the GI50 [63] was 2.6 µM (inactive). For the same compound, the GI50 [27] was 14.7 µM (inactive), the GI50 [28] was 4.85 µM (inactive) and the GI50 [29] was 1.73 µM (inactive). The GI50 [64] was 9.95 µM (inactive), the GI50 [30] was 9.93 µM (inactive) and the GI50 [32] was 2.16 µM (inactive). For the same compound, the GI50 [65] was 8.79 µM (inactive), the GI50 [33] was 5.06 µM (inactive) and the GI50 [66] was 14.7 µM (inactive). For the same compound, the GI50 [34] was 9.12 µM (inactive), the GI50 [35] was 2.14 µM (inactive) and the GI50 [36] was 14 µM (inactive). The GI50 [59] was 2.86 µM (inactive), the GI50 [37] was 4.5 µM (inactive) and the GI50 [38] was 2.07 µM (inactive). For the same compound, the GI50 [39] was 3.94 µM (inactive), the GI50 [40] was 2.47 µM (inactive) and the GI50 [41] was 2.24 µM. For the same compound, the GI50 [42] was 7.87 µM (inactive), the GI50 [43] was 3.26 µM (inactive) and the GI50 [67] was 11.9 µM (inactive). For the same compound, the GI50 [44] was 2.53 µM (inactive), the GI50 [45] was 11.9 µM (inactive) and the GI50 [46] was 2.23 µM (inactive). The GI50 [47] was 7.57 µM (inactive), the GI50 [48] was 11.5 µM (inactive) and the GI50 [49] was 5.05 µM (inactive). For the same compound, the GI50 [50] was 1.85 µM (inactive), the GI50 [51] was 2.85 µM (inactive) and the GI50 [52] was 4.35 µM (inactive). The GI50 [53] was 1.92 µM (inactive), the GI50 [54] was 1.87 µM (inactive) and the GI50 [55] was 3.01 µM (inactive). For the same compound, the GI50 [68] was 19.3 µM (inactive), the GI50 [56] was 11.9 µM (inactive) and the GI50 [57] was 5.97 µM (inactive).
